Data from patent publication US8877748B2, “Heterocyclic fused anthraquinone derivatives, manufacturing method and pharmaceutical composition using thereof” (National Defense Medical Center, priority 2012, dated 2014).
“And” between values parts separate entries of the source, which are not always exact repeats. Equal entries are not always repeated. Where two headings read alike, the source gives them in different places.

Experiments:
[1] = system: PC-3 prostate cancer cell line; experiment: SRB assay cell viability, PC-3 prostate cancer cell line; assay type: cell-based, human
CCRF-CEM = experiment: NCI screening platform one-dose single concentration screening, leukemia CCRF-CEM; assay type: cell-based, human; settings: 10 μM
HL-60, TB = experiment: NCI one-dose screening, leukemia HL-60, TB; assay type: cell-based, human; settings: 10 μM
MOLT-4 = experiment: NCI one-dose screening, leukemia MOLT-4; assay type: cell-based, human; settings: 10 μM
SR = experiment: NCI one-dose screening, leukemia SR; assay type: cell-based, human; settings: 10 μM
PRMI-8226 cell line = experiment: NCI one-dose screening, leukemia PRMI-8226; assay type: cell-based, human; settings: 10 μM
K562cell line = experiment: NCI one-dose screening, leukemia K562; assay type: cell-based, human; settings: 10 μM
HOP-62 = experiment: NCI one-dose screening, non-small cell lung cancer HOP-62; assay type: cell-based, human; settings: 10 μM
HOP-92 = experiment: NCI one-dose screening, non-small cell lung cancer HOP-92; assay type: cell-based, human; settings: 10 μM
NCI-H226 = experiment: NCI one-dose screening, non-small cell lung cancer NCI-H226; assay type: cell-based, human; settings: 10 μM
NCI-H23 = experiment: NCI one-dose screening, non-small cell lung cancer NCI-H23; assay type: cell-based, human; settings: 10 μM
NCI-H322M = experiment: NCI one-dose screening, non-small cell lung cancer NCI-H322M; assay type: cell-based, human; settings: 10 μM; Non-small cell lung cancer
NCI-H460 = experiment: NCI one-dose screening, non-small cell lung cancer NCI-H460; assay type: cell-based, human; settings: 10 μM
NCI-H522 = experiment: NCI one-dose screening, non-small cell lung cancer NCI-H522; assay type: cell-based, human; settings: 10 μM
A549/ATCC = experiment: NCI one-dose screening, non-small cell lung cancer A549/ATCC; assay type: cell-based, human; settings: 10 μM
COLO 205 = experiment: NCI one-dose screening, colon cancer COLO 205; assay type: cell-based, human; settings: 10 μM
HCC-2998 = experiment: NCI one-dose screening, colon cancer HCC-2998; assay type: cell-based, human; settings: 10 μM
HCT-116 = experiment: NCI one-dose screening, colon cancer HCT-116; assay type: cell-based, human; settings: 10 μM
HCT-15 = experiment: NCI one-dose screening, colon cancer HCT-15; assay type: cell-based, human; settings: 10 μM
KM12 = experiment: NCI one-dose screening, colon cancer KM12; assay type: cell-based, human; settings: 10 μM
SF-268 = experiment: NCI one-dose screening, CNS cancer SF-268; assay type: cell-based, human; settings: 10 μM
SF-295 = experiment: NCI one-dose screening, CNS cancer SF-295; assay type: cell-based, human; settings: 10 μM
SF-539 = experiment: NCI one-dose screening, CNS cancer SF-539; assay type: cell-based, human; settings: 10 μM
SNB-19 = experiment: NCI one-dose screening, CNS cancer SNB-19; assay type: cell-based, human; settings: 10 μM
SNB-75 = experiment: NCI one-dose screening, CNS cancer SNB-75; assay type: cell-based, human; settings: 10 μM
U251 = experiment: NCI one-dose screening, CNS cancer U251; assay type: cell-based, human; settings: 10 μM
LOX IMVI = experiment: NCI one-dose screening, melanoma LOX IMVI; assay type: cell-based, human; settings: 10 μM
MALME-3M = experiment: NCI one-dose screening, melanoma MALME-3M; assay type: cell-based, human; settings: 10 μM
M14 = experiment: NCI one-dose screening, melanoma M14; assay type: cell-based, human; settings: 10 μM
UACC-62 = experiment: NCI one-dose screening, melanoma UACC-62; assay type: cell-based, human; settings: 10 μM
UACC-257 = experiment: NCI one-dose screening, melanoma UACC-257; assay type: cell-based, human; settings: 10 μM
SK-MEL-2 = experiment: NCI one-dose screening, melanoma SK-MEL-2; assay type: cell-based, human; settings: 10 μM
SK-MEL-28 = experiment: NCI one-dose screening, melanoma SK-MEL-28; assay type: cell-based, human; settings: 10 μM
SK-MEL-5 = experiment: NCI one-dose screening, melanoma SK-MEL-5; assay type: cell-based, human; settings: 10 μM
IGROV1 = experiment: NCI one-dose screening, ovarian cancer IGROV1; assay type: cell-based, human; settings: 10 μM
OVCAR-3 = experiment: NCI one-dose screening, ovarian cancer OVCAR-3; assay type: cell-based, human; settings: 10 μM
OVCAR-4 = experiment: NCI one-dose screening, ovarian cancer OVCAR-4; assay type: cell-based, human; settings: 10 μM
OVCAR-8 = experiment: NCI one-dose screening, ovarian cancer OVCAR-8; assay type: cell-based, human; settings: 10 μM
SK-OV-3 = experiment: NCI one-dose screening, ovarian cancer SK-OV-3; assay type: cell-based, human; settings: 10 μM
786-O = experiment: NCI one-dose screening, renal cancer 786-O; assay type: cell-based, human; settings: 10 μM
CAKI-1 = experiment: NCI one-dose screening, renal cancer CAKI-1; assay type: cell-based, human; settings: 10 μM
[2] = NCI one-dose screening, renal cancer A489; assay type: cell-based, human; settings: 10 μM
SN12C = experiment: NCI one-dose screening, renal cancer SN12C; assay type: cell-based, human; settings: 10 μM
TK-10 = experiment: NCI one-dose screening, renal cancer TK-10; assay type: cell-based, human; settings: 10 μM
UO-31 = experiment: NCI one-dose screening, renal cancer UO-31; assay type: cell-based, human; settings: 10 μM
RXF, 393 = experiment: NCI one-dose screening, renal cancer RXF, 393; assay type: cell-based, human; settings: 10 μM
DU145 = experiment: NCI one-dose screening, prostate cancer DU145; assay type: cell-based, human; settings: 10 μM
PC-3 = experiment: NCI one-dose screening, prostate cancer PC-3; assay type: cell-based, human; settings: 10 μM
MCF7 = experiment: NCI one-dose screening, breast cancer MCF7; assay type: cell-based, human; settings: 10 μM
HS 578-T = experiment: NCI one-dose screening, breast cancer HS 578-T; assay type: cell-based, human; settings: 10 μM; Breast cancer
MDA-MB-231/ATCC = experiment: NCI one-dose screening, breast cancer MDA-MB-231/ATCC; assay type: cell-based, human; settings: 10 μM
MDA-MB-468 = experiment: NCI one-dose screening, breast cancer MDA-MB-468; assay type: cell-based, human; settings: 10 μM
BT-549 = experiment: NCI one-dose screening, breast cancer BT-549; assay type: cell-based, human; settings: 10 μM
T-47D = experiment: NCI one-dose screening, breast cancer T-47D; assay type: cell-based, human; settings: 10 μM
human tumor cell lines = experiment: NCI one-dose screening, Mean / Delta / Range of growth percent over all tested cell lines; assay type: cell-based; settings: 10 μM; for Growth Percent Delta: delta over all cell lines; for Growth Percent Mean: mean over all cell lines; for Growth Percent Range: range over all cell lines

## O=C1c2ccccc2C(=O)c2c1cc(Sc1ccccc1)c1nsnc21 [C19, 4-(phenylthio)anthra[2,1-c][1,2,5] thiadiazol-6,11-dione]
[1]; Homo sapiens, PC-3 prostate cancer cell line, Table II prints no unit, μM printed, read-out: SRB assay: 50% inhibition of cancer cell proliferation of sample concentration (IC50) of PC-3 prostate cancer cell line
  IC50: 28.6 µM
[1]; Homo sapiens, PC-3 prostate cancer cells, read-out: IC50 in PC-3 prostate cancer cells (cell viability analysis)
  IC50: > 15 µM
CCRF-CEM
  Growth Percent CCRF-CEM: 15.74%
HL-60, TB
  Growth Percent HL-60(TB): 83.94%
MOLT-4
  Growth Percent MOLT-4: 31.08%
SR
  Growth Percent SR: 86.41%
PRMI-8226 cell line
  Growth Percent RPMI-8226: 78.21%
K562cell line
  Growth Percent K562: 52.03%
HOP-62
  Growth Percent HOP-62: 97.77%
HOP-92
  Growth Percent HOP-92: 110.22%
NCI-H226
  Growth Percent NCI-H226: 117.67% and 94.91%
NCI-H23
  Growth Percent NCI-H23: 101.59%
NCI-H322M
  Growth Percent NCI-H322M: 79.21%
NCI-H460
  Growth Percent NCI-H460: 100.74%
NCI-H522
  Growth Percent NCI-H522: 100.56%
A549/ATCC
  Growth Percent A549/ATCC: 105.68%
COLO 205
  Growth Percent COLO 205: 117.53%
HCC-2998
  Growth Percent HCC-2998: 110.88%
HCT-116
  Growth Percent HCT-116: 90.08%
HCT-15
  Growth Percent HCT-15: 93.89%
KM12
  Growth Percent KM12: 99.5%
SF-268
  Growth Percent SF-268: 102.24%
SF-295
  Growth Percent SF-295: 106.36%
SF-539
  Growth Percent SF-539: 106.54%
SNB-19
  Growth Percent SNB-19: 108.79%
SNB-75
  Growth Percent SNB-75: 96.12%
U251
  Growth Percent U251: 88.75%
LOX IMVI
  Growth Percent LOX IMVI: 42%
MALME-3M
  Growth Percent MALME-3M: 106.43%
M14
  Growth Percent M14: 106.41%
UACC-62
  Growth Percent UACC-62: 86.28%
UACC-257
  Growth Percent UACC-257: 92.75%
SK-MEL-2
  Growth Percent SK-MEL-2: 112.49%
SK-MEL-28
  Growth Percent SK-MEL-28: 127.12%
SK-MEL-5
  Growth Percent SK-MEL-5: 85.68%
IGROV1
  Growth Percent IGROV1: 84.4%
OVCAR-3
  Growth Percent OVCAR-3: 96.67%
OVCAR-4
  Growth Percent OVCAR-4: 57.83%
OVCAR-8
  Growth Percent OVCAR-8: 82.3%
SK-OV-3
  Growth Percent SK-OV-3: 105.6%
786-O
  Growth Percent 786-0: 110.04%
CAKI-1
  Growth Percent CAKI-1: 89.04%
[2]
  Growth Percent A498: 95.01%
SN12C
  Growth Percent SN12C: 96.58%
TK-10
  Growth Percent TK-10: 143.47%
UO-31
  Growth Percent UO-31: 80.12%
RXF, 393
  Growth Percent RXF 393: 114.31%
DU145
  Growth Percent DU145: 102.73%
PC-3
  Growth Percent PC-3: 87.32%
MCF7
  Growth Percent MCF7: 94.88%
HS 578-T
  Growth Percent HS 578T: 95.89%
MDA-MB-231/ATCC
  Growth Percent MDA-MB-231/ATCC: 66.67%
MDA-MB-468
  Growth Percent MDA-MB-468: 87.29%
BT-549
  Growth Percent BT-549: 104.68%
T-47D
  Growth Percent T-47D: 93.21%
Human tumor cell lines
  Growth Percent Delta: 77.74%
  Growth Percent Mean: 93.48%
  Growth Percent Range: 123.73%

## O=C1c2ccccc2C(=O)c2c1cc(Cl)c1nsnc21 [C2, 4-Chloro-anthraquinone[2,1-c][1,2,5] thiadiazole-6,11-dione]
[1]; PC-3 prostate cancer cell line, Table II prints no unit, μM printed, read-out: SRB assay: 50% inhibition of cancer cell proliferation of sample concentration (IC50) of PC-3 prostate cancer cell line
  IC50: 13.5 µM
CCRF-CEM
  Growth Percent CCRF-CEM: −41.78%
HL-60, TB
  Growth Percent HL-60(TB): 1.87%
MOLT-4
  Growth Percent MOLT-4: −34.12%
SR
  Growth Percent SR: −23.86%
PRMI-8226 cell line
  Growth Percent RPMI-8226: 27.81%
K562cell line
  Growth Percent K562: 2.44%
HOP-62
  Growth Percent HOP-62: 82.19%
HOP-92
  Growth Percent HOP-92: 75.8%
NCI-H23
  Growth Percent NCI-H23: 100.39%
NCI-H322M
  Growth Percent NCI-H322M: 75.02%
NCI-H460
  Growth Percent NCI-H460: 108.2%
NCI-H522
  Growth Percent NCI-H522: 100.18%
A549/ATCC
  Growth Percent A549/ATCC: 103.21%
COLO 205
  Growth Percent COLO 205: 99.08%
HCC-2998
  Growth Percent HCC-2998: 105.67%
HCT-116
  Growth Percent HCT-116: 48.15%
HCT-15
  Growth Percent HCT-15: 96.8%
KM12
  Growth Percent KM12: 95.88%
SF-268
  Growth Percent SF-268: 37.03%
SF-295
  Growth Percent SF-295: 109.08%
SF-539
  Growth Percent SF-539: 108.52%
SNB-19
  Growth Percent SNB-19: 105.75%
SNB-75
  Growth Percent SNB-75: 85.25%
U251
  Growth Percent U251: 29.19%
LOX IMVI
  Growth Percent LOX IMVI: 10.23%
MALME-3M
  Growth Percent MALME-3M: 97.09%
M14
  Growth Percent M14: 102.73%
UACC-62
  Growth Percent UACC-62: 72.91%
UACC-257
  Growth Percent UACC-257: 76.09%
SK-MEL-2
  Growth Percent SK-MEL-2: 0.21%
SK-MEL-28
  Growth Percent SK-MEL-28: 131.75%
SK-MEL-5
  Growth Percent SK-MEL-5: 72.45%
IGROV1
  Growth Percent IGROV1: 52.47%
OVCAR-3
  Growth Percent OVCAR-3: 49.88%
OVCAR-4
  Growth Percent OVCAR-4: −75.03%
OVCAR-8
  Growth Percent OVCAR-8: −4.57%
SK-OV-3
  Growth Percent SK-OV-3: 109.05%
786-O
  Growth Percent 786-0: 102.14%
CAKI-1
  Growth Percent CAKI-1: 96.51%
[2]
  Growth Percent A498: 93.79%
SN12C
  Growth Percent SN12C: 71.92%
TK-10
  Growth Percent TK-10: 134.06%
UO-31
  Growth Percent UO-31: 80.15%
RXF, 393
  Growth Percent RXF 393: 71.92%
DU145
  Growth Percent DU145: 96.95%
PC-3
  Growth Percent PC-3: 23.54%
MCF7
  Growth Percent MCF7: 65.36%
HS 578-T
  Growth Percent HS 578T: 72.54%
MDA-MB-231/ATCC
  Growth Percent MDA-MB-231/ATCC: −23.35%
MDA-MB-468
  Growth Percent MDA-MB-468: −88.31%
BT-549
  Growth Percent BT-549: 101.5%
T-47D
  Growth Percent T-47D: −54.59%
Human tumor cell lines
  Growth Percent Delta: 143.22%
  Growth Percent Mean: 54.91%
  Growth Percent Range: 222.37%
